Results: patent US10328163B2, “Compounds binding to neuropathological aggregates” (Technische Universität München, priority 2014, dated 2019)
Entries after “also recorded” stand apart in the source; their conditions may differ. Read-outs that look alike come from different tables or passages of the source. One block for each compound: values may come before it.

Key:
log P (octanol/PBS) = type: physicochemical; conditions: Table 2
Text: Lipophilicity of CNS tracers plays an important role on blood brain barrier (BBB) and neuronal cells uptake. Therefore a library of ^18F-bithiazoles with high binding affinity towards Aβ1-40, Aβ1-42 τ, α-Syn were synthesized and log P (octanol/PBS) of these compounds measured (Table 2). The log P values were between 1.1-3.2.

[1] = system: Aβ1-40, Aβ1-42, τ, α-Syn aggregates; assay: In vitro selectivity / binding profile across aggregates (potential use: targeting of); conditions: for Potential Use: Targeting of (in vitro selectivity): Table 2
Protocol: (§1) Saturation and competition binding assays of compounds in this invention towards synthetic amyloid peptides, human tau-441 recombinant and human α-synuclein recombinant aggregate (fibrils) were performed similar to previously reported assays (Manook et al. 2012 and Yousefi et al. 2011) and adapted to the change of peptides and label. Aggregates sample was deployed on 96-well cell culture plates (Greiner Bio-One, Germany) to a final reaction volume of […] per well using 8-channel electronic pipettes (Mettler Toledo, Germany) giving 12-24 octuples of data points per sample. Bound and free fractions were separated by vacuum filtration through polyethyleneimine-pretreated GF/B glass filtermats using a semi-automated Harvester 96 Mach II M (Tomtec, USA). Filters were cut and retained radioactivity determined using an automatic NaI(TI) well-type γ-detector (Wallac 1480-011 Automatic Gamma Counter, PerkinElmer, USA). Data were processed and analyzed using GraphPad Prism 6.0 (GraphPad Software, USA).

Aβ1-40 = Aβ1-40 (Homo sapiens, UniProt P05067); assay: Competition binding assay vs [^3H]PiB on synthetic amyloid peptide aggregates (Aβ1-40); conditions: for inhibition at 0.1 µM: 100 nM; for Ki: read-out: Affinity Ki, Aβ1-40
Sequence of Aβ1-40 (P05067 672-711): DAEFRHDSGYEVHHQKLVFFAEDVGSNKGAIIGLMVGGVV
Protocol: as §1

Aβ1-42 = Aβ1-42 (Homo sapiens, UniProt P05067); assay: Competition binding assay vs [^3H]PiB on synthetic amyloid peptide aggregates (Aβ1-42); conditions: for inhibition at 0.1 µM: 100 nM; for Ki: read-out: Affinity Ki, Aβ1-42
Sequence of Aβ1-42 (P05067 672-713): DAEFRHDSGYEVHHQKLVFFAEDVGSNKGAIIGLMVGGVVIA
Protocol: as §1

[2] = biological target: human tau-441 recombinant aggregate (fibrils) (Homo sapiens, UniProt P10636); assay: Saturation and competition binding assay on tau aggregates (fibrils)
Sequence of human tau-441 recombinant aggregate (fibrils) (P10636 1-441 isoform P10636-8): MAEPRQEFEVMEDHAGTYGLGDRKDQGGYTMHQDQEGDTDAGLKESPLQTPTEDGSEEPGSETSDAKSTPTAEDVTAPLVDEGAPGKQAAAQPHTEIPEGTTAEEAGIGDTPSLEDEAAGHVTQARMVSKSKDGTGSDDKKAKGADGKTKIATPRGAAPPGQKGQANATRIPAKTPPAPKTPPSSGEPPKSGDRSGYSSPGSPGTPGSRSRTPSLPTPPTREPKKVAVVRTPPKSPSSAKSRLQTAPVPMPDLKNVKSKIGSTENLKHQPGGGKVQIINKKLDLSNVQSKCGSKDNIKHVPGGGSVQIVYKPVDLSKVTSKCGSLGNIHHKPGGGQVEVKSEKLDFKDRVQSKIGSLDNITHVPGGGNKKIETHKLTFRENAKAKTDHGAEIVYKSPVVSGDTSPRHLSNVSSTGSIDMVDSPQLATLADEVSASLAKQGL
Protocol: as §1

[3] = biological target: human α-synuclein recombinant aggregate (fibrils) (Homo sapiens, UniProt P37840); assay: Saturation and competition binding assay on α-synuclein aggregates (fibrils); conditions: read-out: Affinity Ki, α-syn
Protocol: as §1

[4] = biological target: T1, Aβ1-40, Aβ1-42, τ, α-Syn aggregates; assay: In vitro selectivity / binding profile across aggregates (potential use: targeting of); conditions: span over all aggregate types, summary of Table 1; read-out: in vitro affinity (Ki) to β-amyloids, NFT τ and synuclein aggregates
T1 construct: other: span over all aggregate types, text summar
Protocol: as §1

β-amyloids = assay: In vitro staining of APP/PS1 tg mouse brain; type: binding; conditions: 24 month old, 1% solution of compound
Aβ and NFT = assay: Ex vivo validation on APP/PS1-tau triple transgenic mouse brain, cross-validated with thioflavin S and AT8; type: in vivo
[5] = Table 1, read-out: Affinity Ki, T
[6] = Table 3, read-out: Affinity Ki, τ

SMILES: Oc1cc(-c2csc(-c3nc(-c4ccc5c(c4)OCO5)cs3)n2)ccc1OCCF [Compound 8]
logP (log P (octanol/PBS)): 2.1
Potential Use: Targeting of (in vitro selectivity) [1]: PAN

SMILES: FCOc1ccc(-c2csc(-c3nc(-c4ccc5c(c4)OCO5)cs3)n2)cc1 [Compound 15]
logP (log P (octanol/PBS)): 2.6
Potential Use: Targeting of (in vitro selectivity) [1]: α-syn

SMILES: COc1ccc(-c2csc(-c3nc(-c4ccc5c(c4)OCO5)cs3)n2)cc1O [Compound 2]
inhibition at 0.1 µM (Aβ1-40; Table 1): 81 ± 2%
Ki (Aβ1-40; Table 1): 10 nM
inhibition at 0.1 µM (Aβ1-42; Table 1): 86 ± 1%
Ki (Aβ1-42; Table 1): 7 nM
Ki [2, 5]: 12 nM
Ki ([3]; Table 1): 9 nM
Potential Use: Targeting of ([1]; Table 1): Aβ, α-syn, τ- aggregates (PAN- ligand)
Ki [4]: 7 to 12 nM
in vitro staining of brain (β-amyloids): specific binding to β-amyloids; also recorded: targets Aβ in the mouse model
ex vivo brain staining, targets labelled (Aβ and NFT; APP/PS1-tau triple transgenic mouse, 24 month old, 45 min p.i., 0.6 mg in DMSO, cortical (FIG. 3) and hippocampus (FIG. 4) region): targets Aβ and NFT in the mouse model
specificity of binding, ex vivo and in vitro validation (Aβ and NFT; APP/PS1 and APP/PS1-tau triple tg mouse model of AD brain): specific binding of compound 2 to Aβ and NFT

SMILES: COc1sc(-c2csc(-c3nc(-c4ccc5c(c4)OCO5)cs3)n2)cc1F [Compound 23]
inhibition at 0.1 µM (Aβ1-40; Table 3): 87 ± 2%
Ki (Aβ1-40; Table 3): 9 nM
inhibition at 0.1 µM (Aβ1-42; Table 3): 86 ± 1%
Ki (Aβ1-42; Table 3): 10 nM
Ki [2, 6]: 10 nM
Ki ([3]; Table 3): 7 nM
logP (log P (octanol/PBS)): 2.9
Potential Use: Targeting of (in vitro selectivity) [1]: PAN
Potential Use: Targeting of ([1]; Table 3): PAN

SMILES: CCOc1ccc(-c2csc(-c3nc(-c4ccc(OC)cc4)cs3)n2)cc1 [Compound 6]
inhibition at 0.1 µM (Aβ1-40; Table 1): 22 ± 1%
inhibition at 0.1 µM (Aβ1-42; Table 1): 30 ± 1%
Ki [2, 5]: > 1000 nM
Ki ([3]; Table 1): 371 nM
Potential Use: Targeting of ([1]; Table 1): α-syn aggregates low binding site

SMILES: FCCOc1ccc(-c2csc(-c3nc(-c4ccc5c(c4)OCO5)cs3)n2)cc1 [Compound 10]
logP (log P (octanol/PBS)): 2.6
Potential Use: Targeting of (in vitro selectivity) [1]: α-syn

SMILES: CN(C)c1ccc(-c2csc(-c3nc(-c4ccc(O)nc4)cs3)n2)cc1 [Compound 20]
inhibition at 0.1 µM (Aβ1-40; Table 3): 90%
Ki (Aβ1-40; Table 3): 5 nM
inhibition at 0.1 µM (Aβ1-42; Table 3): 89 ± 1%
Ki (Aβ1-42; Table 3): 6 nM
Ki [2, 6]: > 1000 nM
Ki ([3]; Table 3): > 1000 nM
logP (log P (octanol/PBS)): 1.9
Potential Use: Targeting of (in vitro selectivity) [1]: Aβ
Potential Use: Targeting of ([1]; Table 3): Aβ

SMILES: COc1ccc(-c2csc(-c3nc(-c4ccc5c(c4)OCO5)cs3)n2)cc1F [Compound 3]
inhibition at 0.1 µM (Aβ1-40; Table 1): 22 ± 1%
inhibition at 0.1 µM (Aβ1-42; Table 1): 45 ± 2%
Ki (Aβ1-42; Table 1): 382 nM
Ki [2, 5]: > 1000 nM
Ki ([3]; Table 1): 3 nM

SMILES: CCCCOc1ccc(-c2csc(-c3nc(-c4ccc(OC)c(F)c4)cs3)n2)cc1 [Compound 5]
inhibition at 0.1 µM (Aβ1-40; Table 1): 11%
inhibition at 0.1 µM (Aβ1-42; Table 1): 45 ± 1%
Ki (Aβ1-42; Table 1): 380 nM
Ki [2, 5]: > 1000 nM
Ki ([3]; Table 1): 328 nM
Potential Use: Targeting of ([1]; Table 1): Aβ, α-syn aggregates low binding site

SMILES: CN(C)c1ccc(-c2csc(-c3nc(-c4ccc(F)nc4)cs3)n2)cc1 [Compound 21]
inhibition at 0.1 µM (Aβ1-40; Table 3): 89 ± 2%
Ki (Aβ1-40; Table 3): 6 nM
inhibition at 0.1 µM (Aβ1-42; Table 3): 88 ± 1%
Ki (Aβ1-42; Table 3): 6 nM
Ki [2, 6]: > 1000 nM
Ki ([3]; Table 3): > 1000 nM
logP (log P (octanol/PBS)): 2.1
Potential Use: Targeting of (in vitro selectivity) [1]: Aβ
Potential Use: Targeting of ([1]; Table 3): Aβ

SMILES: FCCOCCOc1ccc(-c2csc(-c3nc(-c4ccc5c(c4)OCO5)cs3)n2)cc1 [Compound 11]
logP (log P (octanol/PBS)): 2.5
Potential Use: Targeting of (in vitro selectivity) [1]: α-syn

SMILES: Oc1ccc(-c2csc(-c3nc(-c4ccc(OCCOCCF)c(O)c4)cs3)n2)cc1O [Compound 16]
logP (log P (octanol/PBS)): 1.1
Potential Use: Targeting of (in vitro selectivity) [1]: PAN

SMILES: CCOc1ccc(-c2csc(-c3nc(-c4ccc5c(c4)OCO5)cs3)n2)cc1 [Compound 4]
inhibition at 0.1 µM (Aβ1-40; Table 1): 11 ± 2%
inhibition at 0.1 µM (Aβ1-42; Table 1): 45 ± 2%
Ki (Aβ1-42; Table 1): 386 nM
Ki [2, 5]: 558 nM
Ki ([3]; Table 1): 10 nM

SMILES: Oc1cc(-c2csc(-c3nc(-c4ccc5c(c4)OCO5)cs3)n2)ccc1OCCOCCF [Compound 9]
logP (log P (octanol/PBS)): 1.9
Potential Use: Targeting of (in vitro selectivity) [1]: PAN

SMILES: Fc1ccc(-c2cc(-c3csc(-c4nc(-c5ccc6c(c5)OCO6)cs4)n3)on2)cc1 [Compound 22]
inhibition at 0.1 µM (Aβ1-40; Table 3): 20 ± 1%
Ki (Aβ1-40; Table 3): > 500 nM
inhibition at 0.1 µM (Aβ1-42; Table 3): 35 ± 2%
Ki (Aβ1-42; Table 3): 492 nM
Ki [2, 6]: > 1000 nM
Ki ([3]; Table 3): 6 nM
logP (log P (octanol/PBS)): 3.2
Potential Use: Targeting of (in vitro selectivity) [1]: α-syn

Results, then the compound that gave them:

logP (log P (octanol/PBS)): 2.3
Potential Use: Targeting of (in vitro selectivity) [1]: α-syn
SMILES: FCCOCCOCCOc1ccc(-c2csc(-c3nc(-c4ccc5c(c4)OCO5)cs3)n2)cc1 [Compound 18]

inhibition at 0.1 µM (Aβ1-40; Table 1): 94%
Ki (Aβ1-40; Table 1): 4 nM
inhibition at 0.1 µM (Aβ1-42; Table 1): 88 ± 1%
Ki (Aβ1-42; Table 1): 6 nM
Ki [2, 5]: > 1000 nM
Ki ([3]; Table 1): > 1000 nM
Potential Use: Targeting of ([1]; Table 1): Aβ
SMILES: CN(C)c1ccc(-c2csc(-c3nc(-c4ccc(O)cc4)cs3)n2)cc1 [Compound 1]

logP (log P (octanol/PBS)): 1.8
Potential Use: Targeting of (in vitro selectivity) [1]: The low binding site of Aβ
SMILES: Oc1ccc(-c2csc(-c3nc(-c4ccc(OCCOCCOCCF)cc4)cs3)n2)cc1 [Compound 17]

logP (log P (octanol/PBS)): 2
Potential Use: Targeting of (in vitro selectivity) [1]: Aβ
SMILES: Nc1ccc(-c2csc(-c3nc(-c4ccc(NCCOCCOCCF)cc4)cs3)n2)cc1 [Compound 12]

logP (log P (octanol/PBS)): 2.6
Potential Use: Targeting of (in vitro selectivity) [1]: Aβ
SMILES: CN(C)c1ccc(-c2csc(-c3nc(-c4ccc(OCCOCCF)cc4)cs3)n2)cc1 [Compound 13]

logP (log P (octanol/PBS)): 2.4
Potential Use: Targeting of (in vitro selectivity) [1]: Aβ
SMILES: CN(C)c1ccc(-c2csc(-c3nc(-c4ccc(NCCOCCOCCF)cc4)cs3)n2)cc1 [Compound 19]

logP (log P (octanol/PBS)): 1.9
Potential Use: Targeting of (in vitro selectivity) [1]: The low binding site of Aβ
SMILES: Oc1ccc(-c2csc(-c3nc(-c4ccc(OCCOCCF)cc4)cs3)n2)cc1 [Compound 14]

logP (log P (octanol/PBS)): 3.2
Potential Use: Targeting of (in vitro selectivity) [1]: Aβ
SMILES: CN(C)c1ccc(-c2csc(-c3nc(-c4ccc(OCF)cc4)cs3)n2)cc1 [Compound 7]
